system: NaCT-CHO (CHO cells stably expressing human NaCT); assay: Assay of the citric acid cycle activation ([1,5-14C]-citric acid, diffusion of [14C]-CO2); assay type: cell-based; conditions: 1 hour incubation at 37° C. with [1,5-14C]-citric acid
From the text: Assay of the Citric Acid Cycle Activation
(1) Construction of the Human NaCT Expression Vector pME-NaCT
The human NaCT (also called SLC13A5 or NAC2; GenBank accession No. NM_177550) cDNA was inserted into the EcoRI-NotI site of the mammalian expression vector pME18S (GenBank accession No. AB009864) and purified by Qiagen Plasmid Maxi Kit (Qiagen).
(2) Establishment of NaCT Stably Expressed CHO Cells
The pME-NaCT vector and the pcDNA™3.1 vector containing the neomycin resistance gene (Life Technologies) were co-transfected into CHO-K1 cells (ATCC) by Lipofectaimine 2000 reagent (Life Technologies). The next day the cells were subcultured in Nutrient Mixture F-12 Ham (Sigma-Aldrich) with 10% FBS (Biological Industries), and Geneticin (Life Technologies) was added (final concentration 350 μg/mL) in the following day. CHO cell clones stably expressing NaCT were given by neomycin resistant cell screening and limiting dilution method. Established cell lines (named NaCT-CHO) were also maintained in culture medium (Nutrient Mixture F-12 Ham) with 10% FBS and 350 μg/mL Geneticin. For control cells (named pME-CHO) preparation, the naive pME18S were also transfected instead of pME-NaCT into CHO-K1 cells.
(3) Assay of the Citric Acid Cycle Activation
NaCT-CHO and pME-CHO were plated at 20,000 cells/well into white CulturPlate™-96 (PerkinElmer) two days before the assay. Prior to assay incubation, the cultured plates were washed twice with washing buffer, 10 mM HEPES-Tris(pH7.4) containing 140 mM choline chloride, 2 mM KCl, 1 mM CaCl2, 1 mM MgCl2. The compounds to be tested were dissolved and diluted in DMSO (Wako Pure Chemical industries) to 1,000 times of a final concentration, and further diluted to two times as high as the final concentration in assay buffer, 10 mM HEPES-Tris(pH7.4) containing 140 mM NaCl, 2 mM KCl, 1 mM CaCl2, 1 mM MgCl2. The range of final concentrations was properly determined based on the test compounds activity. Each 25 μL compound solution was added to well and subsequently 25 μL radio-labeled substrate solution containing 0.4 mM (0.4 MBq/mL) [1,5-^14C]-citric acid (PerkinElmer) in the assay buffer was added. After 1 hour incubation at 37° C., the reaction mixture was discarded and washed three times with pre-chilled washing buffer and then 0.1 mL MicroScint 20 (PerkinElmer) was added to well. The plate was sealed with TopSeal-A (PerkinElmer) and the radioactivity was measured using a TopCount (PerkinElmer). Non-specific activity (NS cpm) and total radio activity (Total cpm) were determined by counting of pME-CHO plated wells and NaCT-CHO plated wells without compounds, respectively. Diffusion of [^14C]—CO2 was able to be estimated from residual radioactivity (R cpm) by an equation (Total−R)/(Total−NS)×100(%). The difference of Total and R was disappeared in the presence of 0.1 μM antimycin A. EC50 values were calculated by regression analysis using SAS Statistical Analysis System (SAS institute Japan Ltd. Release 9.1).

| SMILES | EC50 [µM] |
| --- | --- |
| CCc1sc(Oc2ccc(Cl)cc2)nc1-c1nn[nH]c1C#N [Example 102] | 0.36 |
| CCc1sc(-c2ccc(C(F)(F)F)nc2)nc1-c1nn[nH]c1C#N [Example 101, 5-[5-ethyl-2-(6-trifluoromethyl-pyridin-3-yl)-thiazol-4-yl]-3H-[1,2,3]triazole-4-carbonitrile] | 0.85 |
| N#Cc1[nH]nnc1-c1sccc1-c1cccc(OCc2cc(C(F)(F)F)ccc2C(F)(F)F)c1 [Example 127, 5-{3-[3-(2,5-bis-trifluoromethyl-benzyloxy)-phenyl]-thiophen-2-yl}-3H-[1,2,3]triazole-4-carbonitrile] | 0.74 |
| CCCc1sc(-c2cccc(C(F)(F)F)c2)nc1-c1nn[nH]c1C#N [Example 104, 5-[5-propyl-2-(3-trifluoromethyl-phenyl)-thiazol-4-yl]-3H-[1,2,3]triazole-4-carbonitrile] | 0.7 |
| Cc1sc(Sc2cccc(C(F)(F)F)c2)nc1-c1nn[nH]c1C#N [Example 97, 5-[5-methyl-2-(3-trifluoromethyl-phenylsulfanyl)-thiazol-4-yl]-3H-[1,2,3]triazole-4-carbonitrile] | 0.5 |
| Cc1cc(-c2nn[nH]c2C#N)sc1-c1ccc(C(F)(F)F)cc1 [Example 130, 5-[4-methyl-5-(4-trifluoromethyl-phenyl)-thiophen-2-yl]-3H-[1,2,3]triazole-4-carbonitrile] | 0.73 |
| N#Cc1[nH]nnc1-c1sccc1-c1cc(C(F)(F)F)cc(C(F)(F)F)c1 [Example 126, 5-[3-(3,5-bis-trifluoromethyl-phenyl)-thiophen-2-yl]-3H-[1,2,3]triazole-4-carbonitrile] | 0.26 |
| N#Cc1ccc(-c2nn[nH]c2C#N)cc1/C=C/c1cccc(C(F)(F)F)c1 [Example 45, 5-{4-cyano-3-[(E)-2-(3-trifluoromethyl-phenyl)-vinyl]-phenyl}-3H-[1,2,3]triazole-4-carbonitrile] | 0.91 |
| Cc1sc(-c2cccc(C(F)(F)F)c2)nc1-c1nn[nH]c1C#N [Example 91, 5-[5-methyl-2-(3-trifluoromethyl-phenyl)-thiazol-4-yl]-3H-[1,2,3]triazole-4-carbonitrile] | 0.7 |
| N#Cc1[nH]nnc1-c1cccc(-c2nc3cc(F)ccc3o2)c1 [Example 27, 5-[3-(5-fluoro-benzoxazol-2-yl)-phenyl]-3H-[1,2,3]triazole-4-carbonitrile] | 0.89 |
| N#Cc1[nH]nnc1-c1cc(Cc2ccc(F)cc2)cc(OC(F)(F)F)c1 [Example 34, 5-[3-(4-fluoro-benzyl)-5-trifluoromethoxy-phenyl]-3H-[1,2,3]triazole-4-carbonitrile] | 0.46 |
| N#Cc1[nH]nnc1-c1coc(-c2ccc(OC(F)(F)F)cc2)n1 [Example 117, 5-[2-(4-trifluoromethoxy-phenyl)-oxazol-4-yl]-3H-[1,2,3]triazole-4-carbonitrile] | 1.59 |
| N#Cc1[nH]nnc1-c1cc(Cl)ccc1-c1cccc(C(F)(F)F)c1 [Example 4, 5-(4-chloro-3′-trifluoromethyl-biphenyl-2-yl)-3H-[1,2,3]triazole-4-carbonitrile] | 0.24 |
| N#Cc1[nH]nnc1-c1cc(OCC2CC2)cc(-c2ccc(C(F)(F)F)cn2)c1 [Example 18, 5-[3-cyclopropylmethoxy-5-(5-trifluoromethyl-pyridin-2-yl)-phenyl]-3H-[0,1,2,3]triazole-4-carbonitrile] | 0.57 |
| N#Cc1[nH]nnc1-c1ccc(-c2ccc(Cl)cc2)o1 [Example 136, 5-[5-(4-chloro-phenyl)-furan-2-yl]-3H-[1,2,3]triazole-4-carbonitrile] | 0.68 |
| N#Cc1[nH]nnc1-c1cccc(CCOc2ccc(C(F)(F)F)cn2)c1 [Example 66, 5-{3-[2-(5-trifluoromethyl-pyridin-2-yloxy)-ethyl]-phenyl}-3H-[1,2,3]triazole-4-carbonitrile] | 0.66 |
| CC(C)Cc1sc(-c2ccc(Cl)cc2)nc1-c1nn[nH]c1C#N [Example 106, 5-[2-(4-chloro-phenyl)-5-isobutyl-thiazol-4-yl]-3H-[1,2,3]triazole-4-carbonitrile] | 0.84 |

| SMILES | EC50 [µM] |
| --- | --- |
| N#Cc1[nH]nnc1-c1cc(Cl)ccc1/C=C/c1cccc(C(F)(F)F)c1 [Example 8, 5-{5-chloro-2-[(E)-2-(3-trifluoromethyl-phenyl)-vinyl]-phenyl}-3H-[1,2,3]triazole-4-carbonitrile] | 0.29 |
| N#Cc1[nH]nnc1-c1cc(OCCCC(F)(F)F)cc(C(F)(F)F)c1 [Example 2, 5-[3-(4,4,4-trifluoro-butoxy)-5-trifluoromethyl-phenyl]-3H-[1,2,3]triazole-4-carbonitrile] | 0.28 |
| Cn1c(-c2cc(F)cc(C(F)(F)F)c2)ccc1-c1nn[nH]c1C#N [Example 139, 5-[5-(3-fluoro-5-trifluoromethyl-phenyl)-1-methyl-1H-pyrrol-2-yl]-3H-[1,2,3]triazole-4-carbonitrile] | 0.21 |
| N#Cc1[nH]nnc1-c1ccn(-c2cc(C(F)(F)F)ccc2C(F)(F)F)c1 [Example 140, 5-[1-(2,5-bis-trifluoromethyl-phenyl)-1H-pyrrol-3-yl]-3H-[1,2,3]triazole-4-carbonitrile] | 0.8 |
| CCc1nc(-c2ccc(Cl)cc2)sc1-c1[nH]nnc1C#N [Example 115, 5-[2-(4-chloro-phenyl)-4-ethyl-thiazol-5-yl]-1H-[1,2,3]triazole-4-carbonitrile] | 0.65 |
| N#Cc1[nH]nnc1-c1csc(-c2ccc(F)c(Cl)c2)n1 [Example 76, 5-[2-(3-chloro-4-fluoro-phenyl)-thiazol-4-yl]-3H-[1,2,3]triazole-4-carbonitrile] | 0.59 |
| N#Cc1[nH]nnc1-c1cc(OC2CCC2)cc(-c2ccc(C(F)(F)F)nc2)c1 [Example 19, 5-[3-cyclobutoxy-5-(6-trifluoromethyl-pyridin-3-yl)-phenyl]-3H-[1,2,3]triazole-4-carbonitrile] | 0.53 |
| N#Cc1[nH]nnc1Cc1cccc(-c2cccc(C(F)(F)F)c2)c1 [Example 149, 5-(3′-trifluoromethyl-biphenyl-3-ylmethyl)-3H-[1,2,3]triazole-4-carbonitrile] | 0.7 |
| N#Cc1[nH]nnc1-c1cc(Cl)cc(Cc2cc(C(F)(F)F)ccc2C(F)(F)F)c1 [Example 35, 5-[3-(2,5-bis-trifluoromethyl-benzyl)-5-chloro-phenyl]-3H-[1,2,3]triazole-4-carbonitrile] | 0.34 |
| N#Cc1[nH]nnc1-c1ccc(-c2cccc(C(F)(F)F)c2)cc1 [Example 68, 5-(3′-trifluoromethyl-biphenyl-4-yl)-3H-[1,2,3]triazole-4-carbonitrile] | 0.46 |
| N#Cc1[nH]nnc1-c1cccc(/C=C/c2cccc(C(F)(F)F)c2)c1Cl [Example 42, 5-{2-chloro-3-[(E)-2-(3-trifluoromethyl-phenyl)-vinyl]-phenyl}-3H-[1,2,3]triazole-4-carbonitrile] | 0.59 |
| COc1sc(-c2ccc(Cl)cc2)nc1-c1nn[nH]c1C#N [Example 110, 5-[2-(4-chloro-phenyl)-5-methoxy-thiazol-4-yl]-3H-[1,2,3]triazole-4-carbonitrile] | 3.23 |
| N#Cc1[nH]nnc1-c1ccc(-c2cc(C(F)(F)F)ccn2)cc1 [Example 69, 5-[4-(4-trifluoromethyl-pyridin-2-yl)-phenyl]-3H-[1,2,3]triazole-4-carbonitrile] | 0.53 |
| Cc1cc(F)cc(-c2nn[nH]c2C#N)c1OCc1cc(F)cc(C(F)(F)F)c1 [Example 9, 5-[5-fluoro-2-(3-fluoro-5-trifluoromethyl-benzyloxy)-3-methyl-phenyl]-3H-[1,2,3]triazole-4-carbonitrile] | 0.23 |
| N#Cc1[nH]nnc1-c1csc(/C=C/c2cccc(C(F)(F)F)c2)n1 [Example 81, 5-{2-[(E)-2-(3-trifluoromethyl-phenyl)-vinyl]-thiazol-4-yl}-3H-[1,2,3]triazole-4-carbonitrile] | 0.99 |
| N#Cc1[nH]nnc1-c1cc(/C=C/c2cccc(C(F)(F)F)c2)co1 [Example 135, 5-{4-[(E)-2-(3-trifluoromethyl-phenyl)-vinyl]-furan-2-yl}-3H-[1,2,3]triazole-4-carbonitrile] | 1.57 |

Source: patent publication US10626095B2, “Cyanotriazole compounds” (OTSUKA PHARMACEUTICAL CO., LTD., priority 2013, dated 2020)
